Test results: patent US7855232B2, “Organoselenium compound for cancer chemoprevention” (LKT Laboratories, Inc., priority 2001, dated 2010)
Marks after values point to notes of the source that are not given here.

Tests used:
GSH = assay: Glutathione (GSH) concentration in tissues of treated mice, HPLC; format: in vivo, Female A/J mice; details: liver; for Ratio Test/con (GSH): gavage; for GSH conc.: gavage in corn oil
Description: GSH was quantitated by modification of the procedure Siller-Cepeda et al. Plant Cell Physiol. 32:1179-1185 (1991). Aliquots of tissue homogenates were mixed with equal volumes of 20% PCA containing 2 mM BPDS. Vortex, centrifuge at 7800×g for 15 minutes at 4° C. and 250 μl supernatant transferred into a microfuge tube containing 25 μl of γ-glu-glu as internal standard. The samples were carboxymethylated with 25 μl of 100 mM iodoacetic acid dissolved in 0.2 mM m-cresol purple sodium salt solution. The pH of the solution was adjusted to 9-10 by adding 350 μl of KOH (2M)-KHCO3 (2.4 M) mixture and incubated in the dark for 15 minutes. After carboxymethylation, the samples were derivatized with 500 μl of 1% dinitrofluorobenzene (DNFB) and kept in the dark at 4° C. overnight. The samples were centrifuged at 13,000×g for 15 minutes, filtered through 0.2 μm filter, and were analyzed with a SHIMADZU two-pump gradient HPLC system. Samples were injected by a SHIMADZU SIL-10AV Autoinjector onto a Varian 3-aminopropyl MICROSORB-MV column (4.6×250 mm) operated at ambient temperature with a flow rate of 1 ml/min. Absorbance of the dinitrophenyl derivatives was monitored at 365 nm. The amount of GSH was calculated from a standard curve using γ-glu-glu as internal standard.

aberrant crypts (AC) = assay: Inhibition of DMH-induced aberrant crypt (AC) formation in colon; format: in vivo, Female CF1 mice; details: with DMH
From the text: Precancerous lesions called aberrant crypts (AC) are used as a marker for colon carcinogenesis. Mice and rats, when exposed to colon-specific carcinogen, develop preneoplastic changes in colon crypts which leads to malignancy through dysplasia-carcinoma sequence. […] McLellan et al., Cancer Res. 48:6183-6186 (1988); McLellan et al., Cancer Res. 48:2311-2315 (1988).
The effect of colon-specific carcinogenesis is typically seen in the induction of AC formation in less than two weeks. AC formation is dose dependent and can be quantitated without elaborate instrumentation. In view of the short time-frame required to get quantifiable results, this bio-assay is a useful prescreening tool for the evaluation of chemopreventative efficacy of compounds that are effective against colon cancer. The protocol for aberrant crypts is shown below:
Female CF1 mice, 3 weeks of age, were purchased from Harlan Sprague-Dawley, Indianapolis, 1N. They were housed, 5 mice per cage, in temperature and humidity-controlled animal quarters with 12 hours light/dark cycle and fed AIN 76A semipurified diet until the ent of the experiment. Water was given ad libitim. The animals were separated into experimental and control groups. The test compounds 0.03-0.04 mmol/kg body weight dissolved in 0.3 mL corn oil, were given by gavage one per day for 8 days. One hour after the inhibitors administration on the 4th and 8th days, 0.4 mg of DMH in 0.2 mL of 0.001 M EDTA, adjusted to pH 6.5 with sodium bicarbonate, was given by gavage. Starting on the 9th day, the inhibitors were given once every other day for an additional 3 weeks. This regimen of inhibitor administration ensures the coverage both the initiation and post initiation periods of carcinogen exposure.
At the end of the 3 week period, the animals were sacrificed and the colons removed. The starting and terminating weights of the animals were recorded. The procedures for the determination of aberrant crypts were those reported by Bird (Cancer Letters 37:147-151 (1987)). The mouse colon including the caecum was removed, rinsed with PBS, and opened longitudinally. The colon contents was removed by washing with PBS. The colon was spread mucosal side up on a piece of filter paper and fixed in buffered formalin overnight. It was then stained with 0.2% methylene blue in PBS for 60 min. The AC foci was read under light microscope. The AC are topographically distinguished by their increased size, increased pericryptal zone, and thicker and deeply stained epithelial lining compared to normal crypts. The number of foci and AC in the colorectal and caecal parts of the colon were recorded separately. The significance of the data was determined by the analysis of variance method. The significance of the incidence of aberrant crypts bearing animals was analyzed by the X^2 test. The aberrant crypts were examined histologically to verify the dysplastic nature of the changes in animals treated with carcinogens and those treated with carcinogens and inhibitors.

[1] = tested on: UDP-Glucuronosyltransferase (UDP-GT); assay: UDP-glucuronosyltransferase (UDP-GT) activity in liver microsomes of treated mice, o-aminophenol substrate; format: in vivo, Female A/J mice; details: for Ratio Test/con (UDP-GT): gavage; for UDP-GT activity (column head prints GSH conc.): gavage in corn oil
Description: Microsomal samples were assayed for enzymatic conjugation by modifying the procedure of Zakim et al., Methods of Biochemical Analysis, ed. David Glick, 21:1-37, (1973). using o-aminophenol as the substrate. The complete assay solution contains, in a total volume of 500 μl, 0.25 M phosphate buffer (pH 7.6), 0.002 M o-aminophenol, 0.05 M UDPGA, 0.125 M magnesium chloride and 100 μl microsomes. The mixture was incubated for 30 minutes. Reactions were stopped by the addition of 500 μl of TCA-sodium phosphate reagent. The precipitated protein was removed, 100 μl of 0.05% sodium nitrite was added to 950 μl of the supernatent solution and allowed to stand for 5 minutes. 100 μl of 0.5% ammonium sulfamate was added, after 5 minutes. 100 μl of 0.12% N-(-1-naphthyl)ethylenediamine dihydrochloride was added and incubated for 2 hours in the dark; and the difference in the optical density between the blanks and the samples were recorded at 555 nm in a Beckman model DU65 UV-VIS spectrophotometer. The UDP-GT activity was calculated using the extinction coefficient 29 mM-1 cm-1 for the coupled product.

N#C[Se]Cc1ccc(C[Se]C#N)s1 [(2) TDMSC, thienyl-2,5-di-methylene selenocyanate]
Ratio Test/con (GSH) (GSH; dose 0.02 mmol/Kg body weight): 1.28
GSH conc. (GSH; dose 0.02 mmol/Kg body weight): 4.91 ± 1.16 μmol/gm tissue weight
Ratio Test/con (GSH) (GSH; dose 0.04 mmol/Kg body weight): 1.20
GSH conc. (GSH; dose 0.04 mmol/Kg body weight): 4.60 ± 2.13 μmol/gm tissue weight
ACF/Colon (aberrant crypts (AC); low dose 0.03 mmol/kg body weight, gavage, DMH alone 1.13): 0.50
AC/Foci (aberrant crypts (AC); low dose 0.03 mmol/kg body weight, gavage, DMH alone 1.28): 1.00
AC/Colon (aberrant crypts (AC); low dose 0.03 mmol/kg body weight, gavage, DMH alone 1.44): 0.50
Total ACF (aberrant crypts (AC); low dose 0.03 mmol/kg body weight, gavage, DMH alone 18): 4
Total AC (aberrant crypts (AC); low dose 0.03 mmol/kg body weight, gavage, DMH alone 23): 4
% animals (aberrant crypts (AC); low dose 0.03 mmol/kg body weight, gavage, DMH alone 43.7): 24.0%
protection (inhibition of aberrant crypt formation) (aberrant crypts (AC); low dose): more than 50%
Ratio Test/con (UDP-GT) ([1]; dose 0.02 mmol/Kg body weight): 1.58
UDP-GT activity (column head prints GSH conc.) ([1]; dose 0.02 mmol/Kg body weight): 7.00 ± 1.07 ^c nmol/min/mg protein
Ratio Test/con (UDP-GT) ([1]; dose 0.04 mmol/Kg body weight): 2.81
UDP-GT activity (column head prints GSH conc.) ([1]; dose 0.04 mmol/Kg body weight): 12.44 ± 2.31 ^c nmol/min/mg protein
Ratio Test/con (UDP-GT) ([1]; dose 0.04 mmol/Kg body weight, listed as TDMSC 2): 3.0
